Assay results as given in patent US7902327B2, “Dendrimeric peptides, pharmaceutical compositions and methods of using the same” (New York University School of Medicine, priority 2007, dated 2011).
Converted amounts (≈) assume the structure as drawn. Like-named read-outs stand apart in the source and are kept apart here. Where a SMILES comes first, the peptide text is derived from it. Side-chain parts run from the residue outwards. [ ]: non-standard residue; d: D form. The star is where a group is joined. Lys(α,ε-(ArgTrp)2) = N=C(N)NCCC[C@H](N)C(=O)N[C@@H](Cc1c[nH]c2ccccc12)C(=O)NCCCC[C@H](NC(=O)[C@H](Cc1c[nH]c2ccccc12)NC(=O)[C@@H](N)CCCNC(=N)N)C(=O)*; βAla = NCCC(=O)O

Experiments:
fresh sheep erythrocytes = test: hemolytic assay; assay type: cell-based; conditions: sheep, 30 min, pH 7.2
Method: Hemolytic activity of model peptides was assessed on fresh sheep erythrocytes (Fitzgerald Inc., Concord, Mass.). […] The resulting supernatant was diluted by a factor of 40 in distilled water. The absorbances of the supernatant at λ=540 nm (OD540) were measured in the UV Spectrophotometer. […] Hemolytic index (HI) was defined as HI═HD50/IC50.

[1] = test system: ampicillin- and streptomycin-resistant E. coli (D31)
[2] = test system: multi-drug resistant strain S. aureus
[3] = test system: ampicillin- and streptomycin-resistant E. coli (D31); test: microbe, parasite or virus in culture; conditions: Escherichia coli, read-out: MIC50 E. coli
[4] = test system: multi-drug resistant strain S. aureus; test: microbe, parasite or virus in culture; conditions: Staphylococcus aureus, read-out: MIC50 S. aureus
B. Subtilis (ATCC 6633) [5] = test: microbe, parasite or virus in culture; conditions: Bacillus subtilis, ATCC6633, read-out: MIC50 B. subtilis
[6] = test system: B. anthracis (32F2 Sterne); test: microbe, parasite or virus in culture; conditions: Bacillus anthracis, read-out: MIC50 B. anthracis
E. faecalis (29212) [7] = test: microbe, parasite or virus in culture; conditions: Enterococcus faecalis, read-out: MIC50 E. faecalis
[8] = assay type: cell-based, mouse
Method: The cells were grown in 96 well plates and a 100 μl aliquot of a three fold serial dilution of the peptides was dispensed into each well. Buffer alone was used as the positive control and H2O2 was used as the negative control. MTS […] was added to each well prior to incubation to visualize the cells. The cells were incubated for 24 hours and their absorbance were measured at λ=495 nm.

[9] = dye leakage assay (calcein); conditions: POPG vesicles
Source text: To confirm that the multivalent AMPs interact with and disrupt phospholipid bilayers, we measured the ability of dendrimer (RW)4D to induce leakage of calcein, entrapped within the interior of large unilamellar vesicles of model membrane POPG (1-Palmitoyl-2-Oleoyl-sn-Glycero-3-[Phospho-rac-(1-glycerol)]) with negatively charged head group. The leakage of vesicle contents to the AMPs was monitored by the release of calcein encapsulated in large unilamellar vesicles. The method of preparation of dye-encapsulated vesicles has been reported in detail (Torchilin and Weissig 2003). In short, large unilamellar POPG vesicles were prepared by reverse-phase evaporation. After evaporating the organic solvent, residue were hydrated with the calcein solution (100 mM) in buffer (10 mM Tris-HCl pH 7.4). The free calcein was removed by eluting through a Sephadex G-50 size-exclusion column in the same buffer. The leakage process was monitored by following the increase of calcein fluorescence intensity at 515 nm (excitation at 490 nm) after 20 μL of AMPs at different concentrations were added to 10 μL of vesicle solution mixed in 2 mL of TBS buffer. Complete leakage was achieved by addition of 100 uL of 20% Triton X-100 to the 2 ml solution, and the corresponding fluorescence intensity was used as 100% leakage for the calculation of leakage fraction.

[10] = test system: multi-drug resistant MRSA gram-positive bacteria; test: killing of multi-drug resistant bacteria, one hour contact; assay type: cell-based
[11] = test system: E. coli(D31) gram-negative bacteria; test: as above; assay type: cell-based
[12] = antibacterial activity under physiological conditions (90% human serum); assay type: cell-based
Method: In a further experiment, antibacterial activity under physiological conditions was tested. The MIC50 was determined in the presence of 90% human serum, respectively.

Acineto Baumannii = test: killing and growth inhibition of Acineto Baumannii; assay type: cell-based
gram-positive MRSA = test: LIVE/DEAD staining assay, membrane damage; assay type: cell-based; conditions: 1 hr incubation; (RW)4D 10 uM
[13] = test system: gram-negative A. baumannii; test: LIVE/DEAD staining assay, membrane damage; assay type: cell-based; conditions: 1 hr incubation; (RW)4D 10 uM
E. coli (RP437) biofilm = test: biofilm formation in 96 well plates, crystal violet; assay type: cell-based; conditions: 24 hours
Source text: The effect of dendrimers of the invention on E. coli biofilm formation was further examined and measured. The development of a bacterial biofilm allows for the bacteria to become more antibiotic resistant. […] Assay summary: E. coli (RP437) was used to form biofilms in 96 well plates with and without different concentrations of peptides.

E. coli RP437 biofilm = test: two-day biofilm on stainless steel coupons, Live/Dead staining; assay type: cell-based; conditions: 25 μg/mL, 48 hours
Method: E. coli biofilm inhibition by (RW)4D was also studied on stainless steel coupons. Microscope images were taken after staining the two-day biofilms with Live/Dead staining solution. […] Assay summary: E. coli RP437 was used to form biofilms in a plastic dish with stainless steel coupons and different concentrations of peptides. After 48 hours incubation, coupon was soaked in NaCl buffer containing staining component in the dark for 15 mins.

B. Subtilis (ATCC 6633) [14] = conditions: ATCC 6633
[15] = test system: B. anthracis (32F2 Sterne)
E. faecalis (29212) [16] = conditions: 29212
[17] = test system: three other gram-positive bacteria; conditions: three gram-positive bacteria
trypsin = trypsin at high concentration, various time intervals up to 24 hrs
[18] = test system: Multidrug-resistant gram-positive S. aureus; conditions: over 250 generations
[19] = test system: gram-negative E. coli (D31); conditions: over 250 generations
E. coli RP437 biofilms [20] = test: biofilm assay on stainless steel coupons with LIVE/DEAD staining; assay type: cell-based; conditions: for Biofilm coefficients: Dead cells / Biofilm coefficients: Live cells / Biofilm coefficients: Total biofilms: 24 hours
Method: The stainless steel (S.S.) coupons were polished using a fine 3M SandBlaster sandpaper, then autoclaved for sterilization. […] For all the treatments, duplicate coupons were tested. To analyze the E. coli biofilms using fluorescence microscopy, the biofilms were stained with […] bacterial viability kit (Cat# L7012, Invitrogen Corporation, California). Each S.S. coupon was washed gently by dipping vertically in 0.85% NaCl buffer three times (change to fresh buffer after each dipping). Then, they were soaked in 1 mL of 0.85% NaCl buffer containing 3 μl of staining component A and B (1:4) in the dark for 15 mins. Images were taken by AXIO Imager.M1 (Carl Zeiss, German). Five images were taken for each sample. Data were obtained and are presented in Table 3, below, as well as in FIG. 5.

E. coli RP437 biofilms [21] = test: CFU assay of biofilm inhibition; assay type: cell-based; conditions: 25 μg/mL, 24 hours
Method: Twenty-four hour biofilms of E. coli RP437 were grown on stainless steel coupons in LB medium containing up to 100 μg/mL of the three antimicrobial peptides—dendrimer, hexamer, and octamer. CFU counts were used to determine the extent of inhibition. The procedure of the study is as follows.
Overnight cultures of E. coli RP437 grown in LB medium were used to inoculate 5 mL of LB supplemented with up to 100 μg/mL of each peptide and polished, sterile 316L stainless steel coupons (1.2 cm×0.6 cm×0.1 cm). The cultures were incubated at 37° C. for 24 hours. The coupons were then removed from the bacterial culture using sterile forceps and washed three times in 0.85% NaCl buffer and placed in round-bottom tubes containing 3 mL of fresh NaCl buffer. These were then sonicated for 1.5 minutes in a water bath. The NaCl buffer containing bacterial cells was serially diluted and 60 μL of 1000 and 5000 fold dilutions were plated on LB agar plates. The plates were incubated at 37° C. overnight. The number of CFUs for each sample was counted after incubation. The experiment was conducted in duplicate.

[22] = mean over no, low and high salt

SMILES: CC(C)(O/N=C(\C(=O)N[C@@H]1C(=O)N2C(C(=O)[O-])=C(C[n+]3ccccc3)CS[C@H]12)c1csc(N)n1)C(=O)O [Ceftazidime]
- HD50 (peptide concentration corresponding to 50% hemolysis) (fresh sheep erythrocytes): >2000 µg/mL
- MIC50 E. coli ([1]; 75 mM NaCl): 44 µg/mL (≈ 80.5 µM)
- MIC50 E. coli ([1]; 150 mM NaCl): 44 µg/mL (≈ 80.5 µM)
- MIC50 S. aureus ([2]; 75 mM NaCl): 63 µg/mL (≈ 115 µM)
- MIC50 S. aureus ([2]; 150 mM NaCl): 63 µg/mL (≈ 115 µM)
- MIC50 [3]: 44 µg/mL (≈ 80.5 µM)
- MIC50 [4]: 63 µg/mL (≈ 115 µM)
- MIC50 (B. Subtilis (ATCC 6633) [5]): 6.2 µg/mL (≈ 11.3 µM)
- MIC50 [6]: 91 µg/mL (≈ 166 µM)
- MIC50 (E. faecalis (29212) [7]): 14 µg/mL (≈ 25.6 µM)

SMILES: N=C(N)NCCC[C@H](N)C(=O)N[C@@H](Cc1c[nH]c2ccccc12)C(=O)NCCCC[C@H](NC(=O)[C@H](Cc1c[nH]c2ccccc12)NC(=O)[C@@H](N)CCCNC(=N)N)C(=O)NCCCC[C@H](NC(=O)[C@H](CCCCNC(=O)[C@H](Cc1c[nH]c2ccccc12)NC(=O)[C@@H](N)CCCNC(=N)N)NC(=O)[C@H](Cc1c[nH]c2ccccc12)NC(=O)[C@@H](N)CCCNC(=N)N)C(=O)NCCC(N)=O [Den(RW)4D] (H-RWK([Trp-Arg])K(Lys(α,ε-(ArgTrp)2))[βAla]-NH2)
- IC50 [8]: ~1380 µg/mL (≈ 750 µM)
- concentration at which peptide caused 50% dye leakage [9]: 0.5 µg/mL
- decrease in bacteria remaining after contact [10]: 3 log
- decrease in bacteria remaining after contact [11]: 3 log
- antimicrobial activity in the presence of human serum [12]: human serum cannot completely block the antimicrobial activity
- killing and growth inhibition (Acineto Baumannii): can kill the bacteria and inhibit its growth at very low concentration
- membrane damage / killing by Live/Dead staining (gram-positive MRSA): show damaged membranes
- membrane damage / killing by Live/Dead staining [13]: show damaged membranes
- inhibition of biofilm formation (E. coli (RP437) biofilm): exhibited inhibition of E. coli biofilm formation
- total biofilm formation on stainless steel coupons compared with blank control (E. coli RP437 biofilm): significantly reduced
- increase in MIC50 value from no salt to high-salt condition [1]: 50%
- MIC50 E. coli ([1]; 0 mM NaCl): 3.0 µg/mL (≈ 1.63 µM)
- MIC50 E. coli ([1]; 75 mM NaCl): 3.9 µg/mL (≈ 2.12 µM)
- MIC50 E. coli ([1]; 150 mM NaCl): 4.5 µg/mL (≈ 2.44 µM)
- mean MIC50 against E. coli [1, 22]: 3.8 µg/mL
- MIC50 S. aureus ([2]; 0 mM NaCl): 10 µg/mL (≈ 5.43 µM)
- MIC50 S. aureus ([2]; 75 mM NaCl): 15 µg/mL (≈ 8.14 µM)
- MIC50 S. aureus ([2]; 150 mM NaCl): 16 µg/mL (≈ 8.69 µM)
- mean MIC50 against S. aureus [2, 22]: 13.6 µg/mL
- MIC50 B. subtilis (B. Subtilis (ATCC 6633) [14]): 3.5 µg/mL (≈ 1.9 µM)
- MIC50 B. anthracis [15]: 13 µg/mL (≈ 7.06 µM)
- MIC50 E. faecalis (E. faecalis (29212) [16]): 5.5 µg/mL (≈ 2.99 µM)
- mean MIC50 against all test organisms [17]: 7.4 µg/mL
- inactivation of antibacterial activity by trypsin (trypsin): resistant to inactivation by trypsin
- development of resistance (MIC90) [18]: did not show resistance
- development of resistance (MIC90) [19]: did not show resistance

SMILES: N=C(N)NCCC[C@H](N)C(=O)N[C@@H](Cc1c[nH]c2ccccc12)C(=O)NCCCC[C@H](NC(=O)[C@H](Cc1c[nH]c2ccccc12)NC(=O)[C@@H](N)CCCNC(=N)N)C(=O)NCCCC[C@H](NC(=O)[C@H](CCCCNC(=O)[C@H](Cc1c[nH]c2ccccc12)NC(=O)[C@@H](N)CCCNC(=N)N)NC(=O)[C@H](Cc1c[nH]c2ccccc12)NC(=O)[C@@H](N)CCCNC(=N)N)C(=O)NCCC(N)=O [Dendrimer] (H-RWK([Trp-Arg])K(Lys(α,ε-(ArgTrp)2))[βAla]-NH2; N-terminus and C-terminus assumed)
- Total biofilm formation compared with blank control (ANOVA) (E. coli RP437 biofilms [20]; 25 μg/mL): significantly reduced
- Biofilm coefficients: Dead cells (E. coli RP437 biofilms [20]; 25 μg/mL): 7.11% ± 1.93%
- Biofilm coefficients: Live cells (E. coli RP437 biofilms [20]; 25 μg/mL): 4.42% ± 2.30%
- Biofilm coefficients: Total biofilms (E. coli RP437 biofilms [20]; 25 μg/mL): 11.16% ± 3.09%
- Total biofilm formation compared with blank control (ANOVA) (E. coli RP437 biofilms [20]; 50 μg/mL): significantly reduced
- Biofilm coefficients: Dead cells (E. coli RP437 biofilms [20]; 50 μg/mL): 5.05% ± 1.47%
- Biofilm coefficients: Live cells (E. coli RP437 biofilms [20]; 50 μg/mL): 2.32% ± 1.12%
- Biofilm coefficients: Total biofilms (E. coli RP437 biofilms [20]; 50 μg/mL): 7.06% ± 1.91%
- reduction of viable biofilm cell counts (E. coli RP437 biofilms [21]): ineffective

SMILES: CN[C@H](CC(C)C)C(=O)N[C@H]1C(=O)N[C@@H](CC(N)=O)C(=O)N[C@H]2C(=O)N[C@H]3C(=O)N[C@H](C(=O)N[C@H](C(=O)O)c4cc(O)cc(O)c4-c4cc3ccc4O)[C@H](O)c3ccc(c(Cl)c3)Oc3cc2cc(c3O[C@@H]2O[C@H](CO)[C@@H](O)[C@H](O)[C@H]2O[C@H]2C[C@](C)(N)[C@H](O)[C@H](C)O2)Oc2ccc(cc2Cl)[C@H]1O [vancomycin, reference compound]
- membrane damage / killing by Live/Dead staining (gram-positive MRSA): did not actively kill
- membrane damage / killing by Live/Dead staining [13]: did not actively kill
